# Experimental data as given in publication PMC11979273, “A phase I study to evaluate the safety, tolerability, and pharmacokinetics of HEC113995PA·H2O, a novel dual-acting serotonergic antidepressant, in healthy subjects” (Frontiers in Pharmacology, 2025).
# Where two headings read alike, the source gives them in different places.
# Legend:
# [1] = Multiple ascending-dose (MAD) study, plasma pharmacokinetics; format: in vivo, human; details: for Cl/F / CLss/F / Css_max / Rac (AUC), accumulation ratio at steady state / Rac_Cmax, accumulation ratio at steady state / AUC(0-t) / Vd/F / Cmax / MRT inf / AUC / AUC(0-inf) / half-life / concentration at 10 day: mean (SD); for AUC(0-t) / Vd/F / Tmax / Tmax at 10 days / Cmax / MRT inf / AUC / AUC(0-inf) / half-life / concentration at 10 day: both sexes, human, plasma, oral; for MRT inf: read-out: MRT0-∞; for concentration at 10 day: read-out: Css_min
# Procedure: Three drug doses (10, 20 and 40 mg) were utilized. A total of 36 healthy subjects of both genders were assigned randomly to the three groups (n = 12), with10 subjects taking HEC113995PA·H2O tablets and 2 taking placebo. The participants in the 10 mg dose group received a single dose daily in the morning after overnight fasting, or a single dose daily after a standard meal in the 20 mg and 40 mg dose groups for 10 consecutive days. Serial blood samples were collected within 0.5 h before drug administration on days 7, 8 and 9, and before and after drug administration on days 1 and 10 to determine plasma concentration and pharmacokinetic characteristics. Safety and tolerability were evaluated on days 4, 8, 13 and 15.
# In the first dose group of single ascending-dose study, PK blood samples were collected at 0.5 h before administration and 0.5, 1, 1.5, 2, 2.5, 3, 4, 5, 6, 8, 10, 12, 24, 36, 48, and 72 h after administration. In other SAD groups, MAD groups and food effect study, PK blood samples were collected at 0.5 h before administration, and 1, 2, 3, 4, 5, 6, 7, 8, 10, 12, 24, 48, 72, 96, 120 and 144 h after administration. Approximately 4 mL of venous blood was obtained from each collection and placed in a vacuum collection vessel containing K2EDTA anticoagulant. The blood was centrifuged and packed according to the instruction provided by the Biological Sample Detection and Analysis Unit. Briefly, all samples were centrifuged at 4°C, 1,500 g for 10 min within 0.5 h after blood collection. After centrifugation, the plasma was aliquoted into two cryogenic storage tubes. The first tube (Tube A) contained at least 0.8 mL of plasma for analytical testing, and the remaining plasma is allocated into the backup tube (Tube B). The plasma samples were stored at −80°C within 1 h after aliquoting for further analysis.
# The concentration of HEC113995PA·H2O in human plasma samples (K2EDTA) was quantitatively analyzed using the LC-MS/MS method. Plasma samples (50 μL) were processed using protein precipitation with 5 μL deuterated internal standard (HEC124659) and 100 μL acetonitrile. The Shimadzu LCMS-8060 system coupled with a GL Sciences Inc. InertSustain AQ-C18 HP column (50 × 2.1 mm, 3 μm) achieved chromatographic separation through gradient elution using 0.04% TFA aqueous solution (pH 2.1) and acetonitrile at 0.4 mL/min. ESI-positive mode detection employed optimized parameters: 300°C interface temperature, 250°C DL temperature, 3 L/min nebulizer gas, and 400°C heating block temperature.
# Using WinNonlin 7.0 for non-compartmental analysis (NCA), pharmacokinetic (PK) parameters were meticulously calculated based on the actual sampling times for plasma, urine, and fecal samples from each subject post-administration. These parameters encompassed a comprehensive range, including the area under the concentration–time curve (AUC), AUC from time zero (pre-dose) to the time of the last measurable concentration (AUC0-t), and AUC from time zero (pre-dose) to infinity (AUC0-∞). Additionally, maximum observed plasma concentration (Cmax), time to achieve maximum plasma concentration (Tmax), terminal elimination half-life (t1/2), elimination rate constant (Ke), apparent volume of distribution (Vd/F), clearance rate (CL/F), and mean residence time (MRT) were also determined. The AUC0-t and AUC0-∞ values were computed using the linear trapezoidal rule method. Tmax and Cmax were ascertained based on the actual observed data. In the context of the multiple ascending-dose study, both the degree of fluctuation (DF) and the accumulation ratio at steady state (Rac) were thoroughly analyzed.
# Solubility in solvents = format: physicochemical
# [2] = MAD 10 mg (N = 10), D1, fasting
# [3] = MAD 20 mg (N = 9), D1, after standard meal
# [4] = MAD 20 mg (N = 9), D10, QD after standard meal
# [5] = MAD 40 mg (N = 10), D1, after standard meal
# [6] = MAD 40 mg (N = 10), D10, QD after standard meal
compound,measurement,setting,value
Cc1nc(-c2cnc(N3CCN(CCCc4c[nH]c5ccc(C#N)cc45)CC3)nc2)sc1C(N)=O [HEC113995PA·H2O],gender difference in systemic exposure,"[1]; 10 mg on an empty stomach, low sample size",no significant gender difference
same,accumulation ratio,[1]; 40 mg dose as printed in discussion,2.4 fold
same,continuous administration until PK steady state,[1]; 10 to 40 mg daily,7 days
same,"accumulation ratios (Rac), range","[1]; 10–40 mg range, discussion",1.83–2.41
same,gender difference in systemic exposure,"[1]; 20 and 40 mg following a standard meal, single and multiple administrations",no apparent gender difference
same,Cl/F,[1]; [2],9.4 L/h
same,Cl/F,[1]; [3],8.1 L/h
same,CLss/F,[1]; [4],7.27 (0.97) L/h
same,Css_max,[1]; [4],202.6 (39.27) ng/mL
same,"Rac (AUC), accumulation ratio at steady state",[1]; [4],1.83 (0.16)
same,"Rac_Cmax, accumulation ratio at steady state",[1]; [4],1.96 (0.28)
same,Cl/F,[1]; [5],8.8 L/h
same,CLss/F,[1]; [6],7.25 (1.4) L/h
same,Css_max,[1]; [6],435.6 (87.5) ng/mL
same,"Rac (AUC), accumulation ratio at steady state",[1]; [6],1.96 (0.35)
same,"Rac_Cmax, accumulation ratio at steady state",[1]; [6],2.1 (0.4)
same,"accumulation ratio Rac_Cmax, arithmetic mean range","[1]; after multiple administrations, 10, 20, 40 mg groups",1.9546–2.4058
same,AUC(0-t),"[1]; 10 mg, MAD 10 mg (N = 10), D1, fasting, read-out: AUC0-t",483 ng·h/mL
same,AUC(0-t),"[1]; 10 mg, MAD 10 mg (N = 10), D1, fasting, read-out: AUC0–24h",486 ng·h/mL
same,Vd/F,"[1]; 10 mg, MAD 10 mg (N = 10), D1, fasting, read-out: Vz/F",350 L
same,Tmax,"[1]; 10 mg, MAD 10 mg (N = 10), D1, fasting, median (min, max), read-out: Tmax",5.5 h
same,Vd/F,"[1]; 10 mg, MAD D10, 10 mg dose group, read-out: Vss/F",521 L
same,Tmax at 10 days,"[1]; 10 mg, MAD D10, 10 mg dose group, median (min, max)",4.5 h
same,AUC(0-t),"[1]; 20 mg, MAD 20 mg (N = 9), D1, after standard meal, read-out: AUC0-t",1520 ng·h/mL
same,AUC(0-t),"[1]; 20 mg, MAD 20 mg (N = 9), D1, after standard meal, read-out: AUC0–24h",1530 ng·h/mL
same,Vd/F,"[1]; 20 mg, MAD 20 mg (N = 9), D1, after standard meal, read-out: Vz/F",189 L
same,Tmax,"[1]; 20 mg, MAD 20 mg (N = 9), D1, after standard meal, median (min, max), read-out: Tmax",5 h
same,Vd/F,"[1]; 20 mg, MAD 20 mg (N = 9), D10, QD after standard meal, read-out: Vss/F",402 L
same,Tmax at 10 days,"[1]; 20 mg, MAD 20 mg (N = 9), D10, QD after standard meal, median (min, max)",2 h
same,AUC(0-t),"[1]; 40 mg, MAD 40 mg (N = 10), D1, after standard meal, read-out: AUC0-t",2920 ng·h/mL
same,AUC(0-t),"[1]; 40 mg, MAD 40 mg (N = 10), D1, after standard meal, read-out: AUC0–24h",2930 ng·h/mL
same,Vd/F,"[1]; 40 mg, MAD 40 mg (N = 10), D1, after standard meal, read-out: Vz/F",192 L
same,Tmax,"[1]; 40 mg, MAD 40 mg (N = 10), D1, after standard meal, median (min, max), read-out: Tmax",5 h
same,Vd/F,"[1]; 40 mg, MAD 40 mg (N = 10), D10, QD after standard meal, read-out: Vss/F",321 L
same,Tmax at 10 days,"[1]; 40 mg, MAD 40 mg (N = 10), D10, QD after standard meal, median (min, max)",2.5 h
same,Tmax,"[1]; 40 mg, following a single administration, 10, 20, 40 mg groups, read-out: median time to peak concentration (Tmax), range",5 to 5.5 h
same,Cmax,[1]; [2],30.6 ng/mL
same,MRT inf,[1]; [2],40 h
same,Cmax,[1]; [3],104 ng/mL
same,MRT inf,[1]; [3],25.3 h
same,AUC,[1]; [4],2790 ng·h/mL
same,AUC(0-inf),[1]; [4],5470 ng·h/mL
same,half-life,[1]; [4],38.6 h
same,concentration at 10 day,[1]; [4],66.8 ng/mL
same,Cmax,[1]; [5],208 ng/mL
same,MRT inf,[1]; [5],24.3 h
same,AUC,[1]; [6],5730 ng·h/mL
same,AUC(0-inf),[1]; [6],10500 ng·h/mL
same,half-life,[1]; [6],30.9 h
same,concentration at 10 day,[1]; [6],132 ng/mL
same,half-life,"[1]; MAD D10, 10 mg dose group",39.1 h
same,concentration at 10 day,"[1]; MAD D10, 10 mg dose group",30 ng/mL
same,AUC(0-inf),"[1]; MAD D10, head prints 20 mg (N = 9)",2490 ng·h/mL
same,solubility,Solubility in solvents; 95% ethanol,practically insoluble
same,solubility,"Solubility in solvents; N,N-dimethylacetamide (DMA)",soluble
same,solubility,Solubility in solvents; acetone,practically insoluble
same,solubility,Solubility in solvents; acetonitrile,practically insoluble
same,solubility,Solubility in solvents; dichloromethane,practically insoluble
same,solubility,Solubility in solvents; dimethyl sulfoxide (DMSO),readily soluble
same,solubility,Solubility in solvents; methanol,practically insoluble
same,solubility,Solubility in solvents; water,practically insoluble
